These results are taken from ChEMBL document CHEMBL5316348, “Targeting the Epidermal Growth Factor Receptor with Molecular Degraders: State-of-the-Art and Future Opportunities” (J Med Chem, 2023).

Series [1] can be described thus: Oral bioavailability in mouse at 10 mg/kg. The class given is ADME, organism-based. The settings on record: in vivo.
Series [2] has as its system BaF3. The series can be described thus: Antitumor activity against mouse BaF3 cells expressing EGFR deletion19/T790M/C797S triple mutant implanted in […] BALB/c nude mouse model assessed as reduction in tumor volume at 40 mg/kg, po relative to control. The class given is functional. Also noted: scale not given: the % may be the effect or the level left.
In series [3] the test system is BaF3. Description: Antitumor activity against mouse BaF3 cells expressing EGFR deletion19/T790M/C797S triple mutant implanted in CDX BALB/c nude mouse model assessed as reduction in tumor volume at 40 mg/kg, po relative to control. Also noted: scale not given: the % may be the effect or the level left. The class given is functional.
The target in series [4] is T1, Protein cereblon/Epidermal growth factor receptor (Homo sapiens, UniProt P00533+Q96SW2). The series can be described thus: Protac activity at CRBN/wild type EGFR in human A549 cells assessed as induction of EGFR degradation at 100 nM measured after 72 hrs by Western blot analysis relative to control. In kind it is cell-based.
The target in series [5] is T1, Protein cereblon/Epidermal growth factor receptor. Description: Protac activity at CRBN/wild type EGFR in human A549 cells assessed as induction of EGFR degradation incubated for 48 hrs by Western blot analysis. In kind it is cell-based. On the technique in general: In western blotting, separated proteins are transferred to a membrane and probed.
For series [6], the system named is Protein cereblon/Epidermal growth factor receptor (Homo sapiens), P00533+Q96SW2 [L858R,T790M]. Description: Protac activity at CRBN/EGFR L858R/T790M double mutant in mouse BaF3 cells assessed as induction of protein degradation at 0.1 uM measured after 24 hrs by Western blot analysis relative to control. The class given is cell-based.
Sequence of Protein cereblon/Epidermal growth factor receptor (Homo sapiens), P00533+Q96SW2 [L858R,T790M] (P00533 whole entry T790M/L858R): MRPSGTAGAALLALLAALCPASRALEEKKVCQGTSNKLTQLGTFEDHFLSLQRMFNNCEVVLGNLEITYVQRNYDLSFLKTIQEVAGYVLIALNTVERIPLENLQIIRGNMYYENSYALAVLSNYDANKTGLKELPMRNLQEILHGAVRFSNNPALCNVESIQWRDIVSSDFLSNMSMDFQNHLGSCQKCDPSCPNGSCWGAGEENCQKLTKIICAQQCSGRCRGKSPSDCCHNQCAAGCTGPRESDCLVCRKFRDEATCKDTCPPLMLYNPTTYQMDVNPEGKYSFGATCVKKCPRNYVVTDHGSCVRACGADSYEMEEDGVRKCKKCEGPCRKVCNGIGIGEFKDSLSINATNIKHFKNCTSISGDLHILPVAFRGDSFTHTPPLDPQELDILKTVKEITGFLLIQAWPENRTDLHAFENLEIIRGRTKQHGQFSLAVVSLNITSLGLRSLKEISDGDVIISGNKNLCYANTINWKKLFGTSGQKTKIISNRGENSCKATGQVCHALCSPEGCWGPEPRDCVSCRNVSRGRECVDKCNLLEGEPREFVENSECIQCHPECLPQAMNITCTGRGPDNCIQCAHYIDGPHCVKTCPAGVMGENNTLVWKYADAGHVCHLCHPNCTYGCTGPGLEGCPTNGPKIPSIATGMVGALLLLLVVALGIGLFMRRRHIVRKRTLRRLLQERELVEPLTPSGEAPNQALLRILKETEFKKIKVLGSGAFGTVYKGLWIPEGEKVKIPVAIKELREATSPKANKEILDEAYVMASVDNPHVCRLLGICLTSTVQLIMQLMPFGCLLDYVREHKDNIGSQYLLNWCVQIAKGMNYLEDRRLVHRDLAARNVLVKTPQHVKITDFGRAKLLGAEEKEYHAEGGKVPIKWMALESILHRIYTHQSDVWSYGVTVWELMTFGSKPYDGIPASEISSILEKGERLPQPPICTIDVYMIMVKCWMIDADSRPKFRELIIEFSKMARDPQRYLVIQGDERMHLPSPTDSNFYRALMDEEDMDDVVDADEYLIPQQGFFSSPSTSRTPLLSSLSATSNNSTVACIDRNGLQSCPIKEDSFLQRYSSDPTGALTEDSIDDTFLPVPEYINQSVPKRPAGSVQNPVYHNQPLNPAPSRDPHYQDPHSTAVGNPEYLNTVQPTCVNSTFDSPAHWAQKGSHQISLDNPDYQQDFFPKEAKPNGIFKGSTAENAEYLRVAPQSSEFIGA
Sequence of Protein cereblon/Epidermal growth factor receptor (Homo sapiens), P00533+Q96SW2 [L858R,T790M] (Q96SW2 whole entry partner): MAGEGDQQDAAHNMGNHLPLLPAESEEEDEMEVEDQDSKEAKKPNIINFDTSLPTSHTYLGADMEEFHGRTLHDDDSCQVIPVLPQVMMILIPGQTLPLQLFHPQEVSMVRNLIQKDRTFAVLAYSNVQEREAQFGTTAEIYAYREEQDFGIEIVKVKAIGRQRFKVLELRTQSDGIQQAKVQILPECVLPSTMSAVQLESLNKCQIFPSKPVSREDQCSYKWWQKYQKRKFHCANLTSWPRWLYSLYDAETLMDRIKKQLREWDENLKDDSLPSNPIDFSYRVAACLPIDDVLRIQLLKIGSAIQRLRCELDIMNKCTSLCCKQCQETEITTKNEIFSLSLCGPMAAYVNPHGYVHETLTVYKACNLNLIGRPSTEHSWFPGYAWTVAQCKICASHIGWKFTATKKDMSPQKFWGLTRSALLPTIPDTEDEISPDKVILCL
Series [7] concerns the target T2, von Hippel-Lindau disease tumor suppressor/Epidermal growth factor receptor (Homo sapiens, UniProt P00533+P40337). Description: Protac activity at VHL/EGFR deletion19 mutant in human HCC827 cells assessed as induction of protein degradation incubated for 24 hrs by immunoblotting analysis. In kind it is cell-based.
Series [8] concerns von Hippel-Lindau disease tumor suppressor/Epidermal growth factor receptor (Homo sapiens), P00533+P40337 [L858R]. Description: Protac activity at VHL/EGFR L858R mutant in human NCI-H3255 cells assessed as induction of protein degradation by measuring maximal efficacy incubated for 24 hrs by immunoblotting analysis relative to control. The class given is cell-based.
The target of series [9] is von Hippel-Lindau disease tumor suppressor/Epidermal growth factor receptor (Homo sapiens, UniProt P00533+P40337, L858R). The series can be described thus: Protac activity at VHL/EGFR L858R mutant in human NCI-H3255 cells assessed as induction of protein degradation incubated for 24 hrs by immunoblotting analysis. The class given is cell-based.
The test system of series [10] is von Hippel-Lindau disease tumor suppressor/Epidermal growth factor receptor (Homo sapiens), P00533+P40337 [UNDEFINED MUTATION]. The series can be described thus: Protac activity at VHL/EGFR deletion19 mutant in human HCC827 cells assessed as induction of protein degradation by measuring maximal efficacy incubated for 24 hrs by immunoblotting analysis relative to control. In kind it is cell-based.
Sequence of von Hippel-Lindau disease tumor suppressor/Epidermal growth factor receptor (Homo sapiens), P00533+P40337 [UNDEFINED MUTATION] (P00533 whole entry, looked up, stated change not applied): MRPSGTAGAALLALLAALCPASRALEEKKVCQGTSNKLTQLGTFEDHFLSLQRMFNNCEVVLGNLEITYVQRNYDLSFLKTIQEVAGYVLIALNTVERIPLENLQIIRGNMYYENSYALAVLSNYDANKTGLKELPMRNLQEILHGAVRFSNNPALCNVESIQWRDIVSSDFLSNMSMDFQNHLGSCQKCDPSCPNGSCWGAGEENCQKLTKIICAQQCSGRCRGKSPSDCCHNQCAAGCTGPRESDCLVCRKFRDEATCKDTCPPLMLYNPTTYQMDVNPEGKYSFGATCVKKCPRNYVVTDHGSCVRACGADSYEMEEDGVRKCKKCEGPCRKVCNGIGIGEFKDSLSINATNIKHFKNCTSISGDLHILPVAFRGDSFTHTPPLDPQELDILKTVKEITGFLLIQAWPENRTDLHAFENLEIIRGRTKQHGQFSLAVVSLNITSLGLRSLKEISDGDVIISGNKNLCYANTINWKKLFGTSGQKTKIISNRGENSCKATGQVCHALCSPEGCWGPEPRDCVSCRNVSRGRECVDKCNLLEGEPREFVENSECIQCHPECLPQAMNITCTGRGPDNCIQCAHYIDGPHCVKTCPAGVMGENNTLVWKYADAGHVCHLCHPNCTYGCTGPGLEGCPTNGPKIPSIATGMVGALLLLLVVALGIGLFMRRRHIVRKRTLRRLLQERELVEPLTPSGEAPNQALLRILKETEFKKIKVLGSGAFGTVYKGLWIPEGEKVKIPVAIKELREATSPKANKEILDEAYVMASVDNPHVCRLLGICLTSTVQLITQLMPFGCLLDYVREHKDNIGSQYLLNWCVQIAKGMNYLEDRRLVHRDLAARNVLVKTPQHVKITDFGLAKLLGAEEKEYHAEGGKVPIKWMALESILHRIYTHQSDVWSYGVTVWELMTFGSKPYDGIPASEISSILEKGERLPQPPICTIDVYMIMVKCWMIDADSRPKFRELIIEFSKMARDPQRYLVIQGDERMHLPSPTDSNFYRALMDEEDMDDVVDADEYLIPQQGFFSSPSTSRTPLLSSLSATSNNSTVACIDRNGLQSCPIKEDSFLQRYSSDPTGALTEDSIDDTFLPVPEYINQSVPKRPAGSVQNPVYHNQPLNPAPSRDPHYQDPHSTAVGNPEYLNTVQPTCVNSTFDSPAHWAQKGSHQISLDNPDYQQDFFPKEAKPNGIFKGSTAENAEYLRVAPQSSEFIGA
Sequence of von Hippel-Lindau disease tumor suppressor/Epidermal growth factor receptor (Homo sapiens), P00533+P40337 [UNDEFINED MUTATION] (P40337 whole entry, looked up, stated change not applied): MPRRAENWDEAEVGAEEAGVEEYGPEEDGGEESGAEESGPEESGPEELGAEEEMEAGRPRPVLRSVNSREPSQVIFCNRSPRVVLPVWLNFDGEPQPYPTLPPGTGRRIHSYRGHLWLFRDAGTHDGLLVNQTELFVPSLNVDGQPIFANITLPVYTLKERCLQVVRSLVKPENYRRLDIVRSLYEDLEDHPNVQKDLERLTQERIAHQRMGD

Series [11] shares this test system. The series can be described thus: Protac activity at VHL/EGFR deletion19 mutant in human HCC827 cells assessed as induction of protein degradation by measuring maximal efficacy relative to control. In kind it is cell-based.
Series [12] addresses T2, von Hippel-Lindau disease tumor suppressor/Epidermal growth factor receptor. Description: Protac activity at VHL/EGFR deletion19 mutant in human HCC827 cells assessed as induction of protein degradation. The class given is cell-based.
The target in series [13] is Epidermal growth factor receptor (Homo sapiens, UniProt P00533, T790M).
Series [14] addresses Epidermal growth factor receptor (Homo sapiens, UniProt P00533). The series can be described thus: Inhibition of wild type EGFR (unknown origin) preincubated for 5 mins followed by substrate and ATP addition and further incubated for 30 mins by HTRF assay.

Molecules are shown by their SMILES. pEC50, pIC50: −log10 of the molar value.

T2 sequence (P00533 25-1210 limits assumed, stated change not applied): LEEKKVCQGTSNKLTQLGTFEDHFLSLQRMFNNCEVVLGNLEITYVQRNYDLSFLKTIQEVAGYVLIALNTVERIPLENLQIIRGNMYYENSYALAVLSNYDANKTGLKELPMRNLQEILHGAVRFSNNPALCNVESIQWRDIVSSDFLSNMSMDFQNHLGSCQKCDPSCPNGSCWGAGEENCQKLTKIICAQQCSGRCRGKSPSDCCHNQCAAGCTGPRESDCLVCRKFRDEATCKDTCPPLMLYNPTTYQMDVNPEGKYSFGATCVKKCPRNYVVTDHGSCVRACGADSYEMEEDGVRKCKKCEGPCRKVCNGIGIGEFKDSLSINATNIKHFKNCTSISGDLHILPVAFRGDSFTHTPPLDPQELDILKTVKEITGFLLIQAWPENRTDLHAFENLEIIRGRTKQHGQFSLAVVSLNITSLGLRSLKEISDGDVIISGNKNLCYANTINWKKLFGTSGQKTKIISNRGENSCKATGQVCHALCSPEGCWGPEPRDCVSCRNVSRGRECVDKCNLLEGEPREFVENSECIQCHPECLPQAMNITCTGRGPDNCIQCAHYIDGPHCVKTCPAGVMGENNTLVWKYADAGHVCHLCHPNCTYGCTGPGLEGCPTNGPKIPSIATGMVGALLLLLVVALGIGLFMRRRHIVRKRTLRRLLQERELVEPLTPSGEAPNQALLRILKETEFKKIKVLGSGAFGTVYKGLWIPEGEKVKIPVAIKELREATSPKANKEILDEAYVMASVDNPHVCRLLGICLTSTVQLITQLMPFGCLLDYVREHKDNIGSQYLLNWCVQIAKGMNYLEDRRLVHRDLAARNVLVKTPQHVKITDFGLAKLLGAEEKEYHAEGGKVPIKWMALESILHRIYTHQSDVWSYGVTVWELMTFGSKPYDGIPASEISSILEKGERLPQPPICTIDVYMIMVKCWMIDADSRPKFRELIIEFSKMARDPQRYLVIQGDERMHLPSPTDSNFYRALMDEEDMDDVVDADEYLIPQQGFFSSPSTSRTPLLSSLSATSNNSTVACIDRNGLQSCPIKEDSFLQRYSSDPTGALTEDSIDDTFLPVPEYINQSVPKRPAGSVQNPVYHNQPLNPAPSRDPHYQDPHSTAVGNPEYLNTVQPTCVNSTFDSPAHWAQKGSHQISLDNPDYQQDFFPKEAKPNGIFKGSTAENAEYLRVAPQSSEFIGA
T2 sequence (P40337 whole entry, stated change not applied): as the sequence (P40337 whole entry, looked up, stated change not applied) above

As to `COc1cc(N2CCC(N3CCN(CCC#Cc4cccc5c4CN(C4CCC(=O)NC4=O)C5=O)CC3)CC2)ccc1Nc1ncc(Cl)c(Nc2ccccc2P(C)(C)=O)n1` (centres undefined), the bioavailability (as a rule, the share of a dose that reaches the circulation, judged against a reference dose that is usually intravenous) in series [1] was 62.8%. Moreover, the figures for the Activity in the series with BaF3 [2] and in the series with BaF3 [3] were 67% and 84%, respectively.
Regarding `Cn1c(=O)c(C(=O)NNCCOCCOCC(=O)Nc2cccc3c2C(=O)N(C2CCC(=O)NC2=O)C3=O)nc2ccccc21` (centres undefined), the Emax in series [4] was 96%. For the same compound, in series [5], the pEC50 (in general, the EC50 on a negative log10 scale, so that one unit is a factor of ten) is 7.48.
As to `O=C1CCC(N2C(=O)c3cccc(NCCOCCOCCOCCN4CCN(c5ccc(-c6ccc7c(c6)C(=O)N(C(C(=O)Nc6nccs6)c6ccccc6)C7)cn5)CC4)c3C2=O)C(=O)N1` (centres undefined), the Emax in series [6] came out at 56%.
For the compound `COc1cc2ncnc(Nc3ccc(F)c(Cl)c3)c2cc1OCCCCCOCCOCCC(=O)N[C@H](C(=O)N1C[C@H](O)C[C@H]1C(=O)NCc1ccc(-c2scnc2C)cc1)C(C)(C)C`, the pEC50 in series [7] is 7.93; in series [9], 7.65. For the same compound, the figures for the Emax in series [8] and in series [10] were 96.6% and 98.9%, respectively.
With `Cc1ncsc1-c1ccc(CNC(=O)[C@@H]2C[C@@H](O)CN2C[C@@H](NC(=O)CCCCCCCCCCn2cc(COc3cc4ncnc(Nc5ccc(F)c(Cl)c5)c4cc3NC(=O)/C=C/CN3CCCCC3)nn2)C(C)(C)C)cc1`, the Emax in series [11] is 91%. Moreover, the pEC50 in series [12] is 8.45.
`CN1C(=O)C(C(=O)NN)N(C)c2ccccc21` (centres undefined): the pIC50 (as a rule, the IC50 on a negative log10 scale, so that one unit is a factor of ten) in [13] was 5.40; in series [14], 7.00.
